Read-outs that look alike come from different tables or passages of the source.
Columns and labels:
[1] = test system: IL-2 stimulated pSTAT5 in Tall-1 T cells; assay: Cellular JAK3 potency assay: inhibition of IL-2 stimulated pSTAT5 in Tall-1 T cells; assay type: cell-based, human; conditions: for Tall-1 (pIC50): IL-2 stimulated pSTAT5, Tall-1 T cells; for IC50: Homo sapiens, read-out: Tall-1 (pIC50) (converted)
Procedure, shortened: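 Tall-1 human T cells were preincubated with compound for 1 h at 37° C, then stimulated with IL-2 (300 ng/ml final) for 30 min. STAT5 phosphorylation in lysates was read by AlphaLisa bead emission, and IC50 from inhibition curves is given as pIC50 (mean±SD).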

[2] = molecular target: T1, JAK2 (Homo sapiens, UniProt O60674); assay: Biochemical JAK2 kinase assay (LanthaScreen); conditions: for Ki: read-out: JAK 2 (pKi) (converted)
T1 construct: GST; purchased Life Technologies
T1 sequence (O60674 whole entry): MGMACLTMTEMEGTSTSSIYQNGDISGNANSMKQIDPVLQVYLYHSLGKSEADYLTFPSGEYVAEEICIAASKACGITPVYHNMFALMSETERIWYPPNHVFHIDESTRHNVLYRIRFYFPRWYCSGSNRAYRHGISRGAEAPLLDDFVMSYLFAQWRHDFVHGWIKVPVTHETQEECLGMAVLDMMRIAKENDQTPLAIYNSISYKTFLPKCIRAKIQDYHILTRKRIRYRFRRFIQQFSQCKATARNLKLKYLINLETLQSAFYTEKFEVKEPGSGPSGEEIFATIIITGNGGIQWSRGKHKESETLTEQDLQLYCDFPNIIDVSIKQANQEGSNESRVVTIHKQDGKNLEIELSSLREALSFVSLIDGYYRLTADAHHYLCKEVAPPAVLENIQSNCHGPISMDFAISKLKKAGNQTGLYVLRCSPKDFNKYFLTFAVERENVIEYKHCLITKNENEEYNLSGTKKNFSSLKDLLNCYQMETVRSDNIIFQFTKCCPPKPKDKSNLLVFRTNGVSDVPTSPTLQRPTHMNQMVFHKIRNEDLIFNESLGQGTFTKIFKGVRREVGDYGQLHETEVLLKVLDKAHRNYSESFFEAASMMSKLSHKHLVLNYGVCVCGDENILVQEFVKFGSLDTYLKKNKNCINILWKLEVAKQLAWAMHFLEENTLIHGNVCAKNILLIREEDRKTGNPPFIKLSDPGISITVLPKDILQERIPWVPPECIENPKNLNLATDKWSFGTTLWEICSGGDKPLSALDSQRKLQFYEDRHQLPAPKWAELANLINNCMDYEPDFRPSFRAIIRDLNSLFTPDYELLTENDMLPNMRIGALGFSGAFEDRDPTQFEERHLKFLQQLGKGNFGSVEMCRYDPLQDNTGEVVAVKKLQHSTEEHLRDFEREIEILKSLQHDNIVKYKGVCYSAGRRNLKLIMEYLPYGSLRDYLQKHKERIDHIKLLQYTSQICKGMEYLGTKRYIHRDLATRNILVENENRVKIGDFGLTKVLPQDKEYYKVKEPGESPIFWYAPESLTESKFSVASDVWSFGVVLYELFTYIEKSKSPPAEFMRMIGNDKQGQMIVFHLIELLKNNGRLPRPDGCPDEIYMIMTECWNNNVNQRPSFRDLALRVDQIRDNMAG
Procedure, shortened: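 pKi values derive from pIC50 via Cheng-Prusoff, with IC50 from a 4-parameter fit of percent-inhibition TR-FRET data using Tb-anti-pSTAT1 (pTyr701) detection. Compound, GST-JAK2 and GFP-STAT1 substrate were pre-incubated 1 h, then ATP started a 1 h ambient reaction (HEPES pH 7.5, 10 mM MgCl2, 1% DMSO).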

[3] = molecular target: T2, Tyk2 (Homo sapiens, UniProt P29597); assay: Biochemical Tyk2 kinase assay (LanthaScreen); conditions: for Ki: read-out: Tyk 2 (pKi) (converted)
T2 construct: GST; purchased Life Technologies
T2 sequence (P29597 whole entry): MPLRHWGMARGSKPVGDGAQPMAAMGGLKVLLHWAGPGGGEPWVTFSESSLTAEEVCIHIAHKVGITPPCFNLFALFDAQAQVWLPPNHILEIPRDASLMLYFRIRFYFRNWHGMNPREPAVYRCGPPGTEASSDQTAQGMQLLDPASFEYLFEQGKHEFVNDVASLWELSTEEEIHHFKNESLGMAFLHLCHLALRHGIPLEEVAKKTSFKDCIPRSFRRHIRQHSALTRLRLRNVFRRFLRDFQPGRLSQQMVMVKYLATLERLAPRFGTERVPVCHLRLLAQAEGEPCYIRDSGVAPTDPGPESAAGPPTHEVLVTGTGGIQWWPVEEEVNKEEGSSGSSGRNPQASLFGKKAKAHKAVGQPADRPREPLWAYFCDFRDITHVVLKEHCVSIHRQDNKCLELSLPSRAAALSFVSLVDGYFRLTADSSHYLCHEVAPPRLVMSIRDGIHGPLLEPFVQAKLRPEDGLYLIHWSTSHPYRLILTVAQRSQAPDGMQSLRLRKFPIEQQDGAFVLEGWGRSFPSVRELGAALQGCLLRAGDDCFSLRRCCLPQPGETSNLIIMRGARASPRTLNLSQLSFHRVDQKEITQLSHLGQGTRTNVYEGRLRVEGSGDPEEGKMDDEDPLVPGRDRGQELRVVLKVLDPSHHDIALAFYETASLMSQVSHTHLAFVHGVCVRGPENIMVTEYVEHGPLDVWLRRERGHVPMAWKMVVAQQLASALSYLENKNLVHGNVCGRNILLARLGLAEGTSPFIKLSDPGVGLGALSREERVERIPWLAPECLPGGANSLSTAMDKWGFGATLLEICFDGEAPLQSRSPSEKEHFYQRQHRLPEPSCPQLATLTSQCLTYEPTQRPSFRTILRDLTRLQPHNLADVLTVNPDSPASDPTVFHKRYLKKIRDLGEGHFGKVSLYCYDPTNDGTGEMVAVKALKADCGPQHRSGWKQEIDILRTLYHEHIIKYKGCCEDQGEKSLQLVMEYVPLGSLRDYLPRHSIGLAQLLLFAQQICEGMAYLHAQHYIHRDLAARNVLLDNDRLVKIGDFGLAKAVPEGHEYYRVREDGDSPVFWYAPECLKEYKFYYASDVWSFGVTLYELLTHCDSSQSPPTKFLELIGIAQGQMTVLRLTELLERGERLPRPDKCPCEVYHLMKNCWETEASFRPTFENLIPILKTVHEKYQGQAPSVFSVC
Procedure, shortened: (§1)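 Values are pKi, calculated by Cheng-Prusoff from IC50 obtained by robust 4-parameter fitting of percent inhibition. The kinase reaction used GFP-STAT1 peptide in HEPES pH 7.5 buffer with MgCl2, EGTA and Brij-35, ATP-initiated after compound pre-incubation, 1 h at ambient temperature.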

[4] = molecular target: T3, JAK1 (Homo sapiens, UniProt P23458); assay: Biochemical JAK1 kinase assay (LanthaScreen); conditions: for Ki: read-out: JAK 1 (pKi) (converted)
T3 construct: GST; purchased Life Technologies
T3 sequence (P23458 whole entry): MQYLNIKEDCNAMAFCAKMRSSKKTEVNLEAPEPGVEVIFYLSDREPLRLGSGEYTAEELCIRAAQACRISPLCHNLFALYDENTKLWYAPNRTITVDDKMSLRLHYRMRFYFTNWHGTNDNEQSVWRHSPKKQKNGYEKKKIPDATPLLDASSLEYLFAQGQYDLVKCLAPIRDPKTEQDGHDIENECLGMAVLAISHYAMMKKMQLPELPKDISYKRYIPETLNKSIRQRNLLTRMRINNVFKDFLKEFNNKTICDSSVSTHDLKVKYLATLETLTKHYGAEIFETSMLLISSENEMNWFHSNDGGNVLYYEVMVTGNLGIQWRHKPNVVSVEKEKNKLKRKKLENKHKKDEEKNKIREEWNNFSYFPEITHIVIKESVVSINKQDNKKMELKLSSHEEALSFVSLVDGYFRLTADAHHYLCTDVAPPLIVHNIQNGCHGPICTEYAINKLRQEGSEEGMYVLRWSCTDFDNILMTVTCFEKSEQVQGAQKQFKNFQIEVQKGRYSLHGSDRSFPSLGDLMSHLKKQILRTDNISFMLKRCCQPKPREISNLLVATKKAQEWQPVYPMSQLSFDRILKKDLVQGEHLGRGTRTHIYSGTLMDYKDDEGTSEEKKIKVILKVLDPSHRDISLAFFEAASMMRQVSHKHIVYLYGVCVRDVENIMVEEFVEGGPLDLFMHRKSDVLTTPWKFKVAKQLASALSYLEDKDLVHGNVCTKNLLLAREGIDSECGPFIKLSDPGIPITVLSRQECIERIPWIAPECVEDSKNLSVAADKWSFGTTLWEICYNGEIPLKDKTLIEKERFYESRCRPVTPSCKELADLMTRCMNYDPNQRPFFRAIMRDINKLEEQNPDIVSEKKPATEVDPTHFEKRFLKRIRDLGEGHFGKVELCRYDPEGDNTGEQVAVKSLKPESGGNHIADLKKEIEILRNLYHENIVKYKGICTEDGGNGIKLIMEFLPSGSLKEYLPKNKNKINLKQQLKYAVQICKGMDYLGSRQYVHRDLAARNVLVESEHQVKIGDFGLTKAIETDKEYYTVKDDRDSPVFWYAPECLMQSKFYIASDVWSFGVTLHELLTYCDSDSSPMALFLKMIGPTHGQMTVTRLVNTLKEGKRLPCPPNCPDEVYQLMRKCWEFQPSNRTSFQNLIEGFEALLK
Procedure, shortened: as §1

[5] = molecular target: T4, JAK3 (Homo sapiens, UniProt P52333); assay: Biochemical JAK3 kinase assay (LanthaScreen); set-up: GST; purchased Life Technologies; conditions: for Ki: read-out: JAK 3 (pKi) (converted)
T4 sequence (P52333 1-1124): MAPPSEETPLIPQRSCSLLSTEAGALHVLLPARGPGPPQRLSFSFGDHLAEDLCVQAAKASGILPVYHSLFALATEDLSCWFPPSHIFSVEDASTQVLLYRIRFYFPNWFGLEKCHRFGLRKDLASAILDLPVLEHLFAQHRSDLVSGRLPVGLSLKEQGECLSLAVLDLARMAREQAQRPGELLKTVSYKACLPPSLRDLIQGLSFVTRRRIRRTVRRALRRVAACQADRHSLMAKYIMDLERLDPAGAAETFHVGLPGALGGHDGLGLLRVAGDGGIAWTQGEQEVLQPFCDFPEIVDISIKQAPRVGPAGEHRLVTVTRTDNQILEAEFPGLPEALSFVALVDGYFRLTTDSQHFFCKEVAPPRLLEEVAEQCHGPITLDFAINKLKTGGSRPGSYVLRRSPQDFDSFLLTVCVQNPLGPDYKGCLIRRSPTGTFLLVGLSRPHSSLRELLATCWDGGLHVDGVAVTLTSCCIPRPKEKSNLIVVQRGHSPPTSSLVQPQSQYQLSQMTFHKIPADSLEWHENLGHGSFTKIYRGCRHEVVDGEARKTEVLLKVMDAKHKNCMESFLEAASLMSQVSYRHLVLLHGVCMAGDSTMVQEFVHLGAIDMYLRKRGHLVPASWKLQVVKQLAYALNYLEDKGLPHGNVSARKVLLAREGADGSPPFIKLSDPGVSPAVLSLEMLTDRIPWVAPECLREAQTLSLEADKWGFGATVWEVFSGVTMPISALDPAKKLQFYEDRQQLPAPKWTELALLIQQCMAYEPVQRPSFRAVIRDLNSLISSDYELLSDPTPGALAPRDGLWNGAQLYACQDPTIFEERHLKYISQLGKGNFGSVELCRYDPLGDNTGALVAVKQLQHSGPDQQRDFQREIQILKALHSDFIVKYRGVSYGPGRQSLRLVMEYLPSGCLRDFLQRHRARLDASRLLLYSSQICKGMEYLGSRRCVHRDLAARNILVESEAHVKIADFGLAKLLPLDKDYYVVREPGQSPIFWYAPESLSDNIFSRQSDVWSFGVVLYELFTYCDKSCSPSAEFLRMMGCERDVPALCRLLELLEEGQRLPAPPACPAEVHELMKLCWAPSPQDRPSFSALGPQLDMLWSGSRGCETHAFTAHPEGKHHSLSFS
Procedure, shortened: as §1

[6] = selectivity JAK3 over JAK1, difference of pKi
[7] = TALL-1, IL-2 stimulated pSTAT5 in Tall-1 T cells
[8] = selectivity: difference of pKi JAK3 and pKi JAK1
[9] = TALL-1, IL-2 stimulated pSTAT5, Tall-1 T cells

C=CC(=O)N1CC(OCc2cc(-c3ccc(O)c(F)c3)cc3[nH]ncc23)C1 [Compound 16-3]
Tall-1 (pIC50) [1]: A (a pIC50 value≥7.5 (IC50≤32 nM)) | JAK 2 (pKi) [2]: E (a pKi value of 7 or below (Ki of 100 nM or above)) | Tyk 2 (pKi) [3]: E (a pKi value of 7 or below (Ki of 100 nM or above)) | JAK 1 (pKi) [4]: E (a pKi value of 7 or below (Ki of 100 nM or above)) | JAK 3 (pKi) [5]: B (a pKi value between 9 and 10 (Ki between 1 nM and 0.1 nM)) | JAK3 (pKi)-JAK1 (pKi) [5, 6]: A (a value of 3 or above)

C=CC(=O)N1CC(OCc2nc(-c3ccc(O)cc3)cc3[nH]ncc23)C1 [Compound 16-5]
Tall-1 (pIC50) [1]: A (a pIC50 value≥7.5 (IC50≤32 nM)) | JAK 2 (pKi) [2]: E (a pKi value of 7 or below (Ki of 100 nM or above)) | Tyk 2 (pKi) [3]: E (a pKi value of 7 or below (Ki of 100 nM or above)) | JAK 1 (pKi) [4]: E (a pKi value of 7 or below (Ki of 100 nM or above)) | JAK 3 (pKi) [5]: A (a pKi value≥10 (Ki≤0.1 nM)) | JAK3 (pKi)-JAK1 (pKi) [5, 6]: A (a value of 3 or above)

CN(C)C/C=C/C(=O)N1CC(OCc2nc(-c3ccc(O)cc3)cc3[nH]ncc23)C1 [Compound 16-6]
Tall-1 (pIC50) [1]: C (a pIC50 value between 6 and 6.7 (IC50 between 1 μM and 200 nM)) | JAK 2 (pKi) [2]: E (a pKi value of 7 or below (Ki of 100 nM or above)) | Tyk 2 (pKi) [3]: E (a pKi value of 7 or below (Ki of 100 nM or above)) | JAK 1 (pKi) [4]: E (a pKi value of 7 or below (Ki of 100 nM or above)) | JAK 3 (pKi) [5]: B (a pKi value between 9 and 10 (Ki between 1 nM and 0.1 nM)) | JAK3 (pKi)-JAK1 (pKi) [5, 6]: A (a value of 3 or above)

CN(C)C/C=C/C(=O)N1CC(OCc2cc(-c3ccc(O)c(F)c3)cc3[nH]ncc23)C1 [Compound 16-7]
Tall-1 (pIC50) [1]: B (a pIC50 value between 6.7 (included) and 7.5 (IC50 between 200 nM and 32 nM)) | JAK 2 (pKi) [2]: E (a pKi value of 7 or below (Ki of 100 nM or above)) | Tyk 2 (pKi) [3]: E (a pKi value of 7 or below (Ki of 100 nM or above)) | JAK 1 (pKi) [4]: E (a pKi value of 7 or below (Ki of 100 nM or above)) | JAK 3 (pKi) [5]: A (a pKi value≥10 (Ki≤0.1 nM)) | JAK3 (pKi)-JAK1 (pKi) [5, 6]: A (a value of 3 or above)

C=CC(=O)N1CC(COc2cc(-c3ccc(O)cc3)cc3[nH]nnc23)C1 [Compound 17-1]
Tall-1 (pIC50) [1]: B (a pIC50 value between 6.7 (included) and 7.5 (IC50 between 200 nM and 32 nM)) | JAK 2 (pKi) [2]: E (a pKi value of 7 or below (Ki of 100 nM or above)) | Tyk 2 (pKi) [3]: E (a pKi value of 7 or below (Ki of 100 nM or above)) | JAK 1 (pKi) [4]: E (a pKi value of 7 or below (Ki of 100 nM or above)) | JAK 3 (pKi) [5]: B (a pKi value between 9 and 10 (Ki between 1 nM and 0.1 nM)) | JAK3 (pKi)-JAK1 (pKi) [5, 6]: A (a value of 3 or above)

C=CS(=O)(=O)N1CC[C@H](Oc2cc(-c3ccc(O)cc3)cc3[nH]ncc23)C1 [Compound 18, (S)-4-(4-((1-(vinylsulfonyl)pyrrolidin-3-yl)oxy)-1H-indazol-6-yl)phenol]
IC50 [1, 7]: < 31.6 nM | Ki [2]: 10 to 100 nM | Ki [3]: > 100 nM | Ki [4]: > 100 nM | Ki [5]: 0.1 to 1 nM | JAK3 (pKi)-JAK1 (pKi) [5, 8]: A (a value of 3 or above)

Cc1n[nH]c2cc(-c3ccc(O)c(Cl)c3)cc(OCC3CN(C(=O)/C=C/CN(C)C)C3)c12 [Compound 18-1]
IC50 [1, 9]: < 31.6 nM | Ki [2]: 10 to 100 nM | Ki [3]: > 100 nM | Ki [4]: > 100 nM | Ki [5]: 0.1 to 1 nM | JAK3 (pKi)-JAK1 (pKi) [5, 6]: B (a value of 2.3 to 3)

CN(C)C/C=C/C(=O)N1CC(COc2cc(-c3cc(F)c(O)cc3F)cc3[nH]ncc23)C1 [Compound 18-3]
IC50 [1, 9]: < 31.6 nM | Ki [2]: 10 to 100 nM | Ki [3]: > 100 nM | Ki [4]: 10 to 100 nM | Ki [5]: < 0.1 nM | JAK3 (pKi)-JAK1 (pKi) [5, 6]: B (a value of 2.3 to 3)

Cc1cc(-c2cc(OCC3CN(C(=O)/C=C/CN(C)C)C3)c3cn[nH]c3c2)ccc1O [Compound 18-8]
Tall-1 (pIC50) [1]: B (a pIC50 value between 6.7 (included) and 7.5 (IC50 between 200 nM and 32 nM)) | JAK 2 (pKi) [2]: E (a pKi value of 7 or below (Ki of 100 nM or above)) | Tyk 2 (pKi) [3]: E (a pKi value of 7 or below (Ki of 100 nM or above)) | JAK 1 (pKi) [4]: E (a pKi value of 7 or below (Ki of 100 nM or above)) | JAK 3 (pKi) [5]: B (a pKi value between 9 and 10 (Ki between 1 nM and 0.1 nM)) | JAK3 (pKi)-JAK1 (pKi) [5, 6]: A (a value of 3 or above)

C=CC(=O)N1CC(COc2cc(-c3ccc(O)c(C)c3)cc3[nH]ncc23)C1 [Compound 18-9]
IC50 [1, 9]: < 31.6 nM | Ki [2]: > 100 nM | Ki [3]: > 100 nM | Ki [4]: > 100 nM | Ki [5]: < 0.1 nM | JAK3 (pKi)-JAK1 (pKi) [5, 6]: A (a value of 3 or above)

C=CC(=O)N1CC(COc2cc(-c3ccc(O)cc3)cc3[nH]nc(SC)c23)C1 [Compound 18-10]
IC50 [1, 9]: 31.6 to 200 nM | Ki [2]: 10 to 100 nM | Ki [3]: > 100 nM | Ki [4]: > 100 nM | Ki [5]: < 0.1 nM | JAK3 (pKi)-JAK1 (pKi) [5, 6]: A (a value of 3 or above)

CN(C)C/C=C/C(=O)N1CC(COc2cc(-c3ccc(O)cc3)cc3[nH]nc(C(F)(F)F)c23)C1 [Compound 18-12]
IC50 [1, 9]: 31.6 to 200 nM | Ki [2]: 10 to 100 nM | Ki [3]: > 100 nM | Ki [4]: 10 to 100 nM | Ki [5]: 0.1 to 1 nM | JAK3 (pKi)-JAK1 (pKi) [5, 6]: B (a value of 2.3 to 3)

C=CC(=O)N1CC(COc2cc(-c3ccc(O)cc3)cc3[nH]nc(C(F)(F)F)c23)C1 [Compound 18-13]
IC50 [1, 9]: < 31.6 nM | Ki [2]: 10 to 100 nM | Ki [3]: > 100 nM | Ki [4]: > 100 nM | Ki [5]: < 0.1 nM | JAK3 (pKi)-JAK1 (pKi) [5, 6]: A (a value of 3 or above)

C=CC(=O)N1CC[C@H](COc2cc(-c3ccc(O)cc3)cc3[nH]nnc23)C1 [Compound 23, (S)-1-(3-(((6-(4-hydroxyphenyl)-1H-benzo[d][1,2,3]triazol-4-yl)oxy)methyl)pyrrolidin-1-yl)prop-2-en-1-one]
IC50 [1, 7]: 31.6 to 200 nM | Ki [2]: 10 to 100 nM | Ki [3]: > 100 nM | Ki [4]: > 100 nM | Ki [5]: < 0.1 nM | JAK3 (pKi)-JAK1 (pKi) [5, 8]: A (a value of 3 or above)

C=CC(=O)N1CC[C@H](Oc2cc(-c3ccc(O)c(Cl)c3)cc3[nH]nc(C)c23)C1 [Compound 24, (S)-1-(3-((6-(3-chloro-4-hydroxyphenyl)-3-methyl-1H-indazol-4-yl)oxy)pyrrolidin-1-yl)prop-2-en-1-one]
IC50 [1, 7]: < 31.6 nM | Ki [2]: > 100 nM | Ki [3]: > 100 nM | Ki [4]: > 100 nM | Ki [5]: 0.1 to 1 nM | JAK3 (pKi)-JAK1 (pKi) [5, 8]: A (a value of 3 or above)

Source: US10392368B2, “Pyrazolo and triazolo bicyclic compounds as JAK kinase inhibitors” (THERAVANCE BIOPHARMA R&D IP, LLC, priority 2017, dated 2019)
